Key:
[1] = molecular target: T1, Human recombinant CYP2J2 (Homo sapiens, UniProt P51589); assay: Inhibition activity of Piperine derivatives towards CYP2J2 (BnXPI probe, IC50); format: biochemical; details: for IC50: CYP2J2 3.75 pmol/mL, BnXPI 4 μM, 30 min, triplicate, mean ± SD, read-out: Inhibitory activity (IC50) CYP2J2; for increase of inhibition activity compared with Piperine: IC50 versus Piperine
T1 construct: purchased Cypex (Scotland, UK)
T1 sequence (P51589 1-502): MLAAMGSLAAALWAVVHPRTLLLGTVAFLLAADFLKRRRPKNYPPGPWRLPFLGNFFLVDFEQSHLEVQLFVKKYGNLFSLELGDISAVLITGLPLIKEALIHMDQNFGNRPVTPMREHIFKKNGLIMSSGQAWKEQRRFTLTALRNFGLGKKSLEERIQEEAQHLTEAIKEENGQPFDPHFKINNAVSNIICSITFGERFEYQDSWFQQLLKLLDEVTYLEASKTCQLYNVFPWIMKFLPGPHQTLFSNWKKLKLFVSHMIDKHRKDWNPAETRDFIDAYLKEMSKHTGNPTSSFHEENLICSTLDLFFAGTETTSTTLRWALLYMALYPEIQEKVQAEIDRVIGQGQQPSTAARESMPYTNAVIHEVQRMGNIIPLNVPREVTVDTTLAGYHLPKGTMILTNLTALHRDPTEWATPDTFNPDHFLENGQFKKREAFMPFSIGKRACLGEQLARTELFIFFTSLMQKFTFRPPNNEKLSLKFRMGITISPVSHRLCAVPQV
Protocol: In our previous study, BnXPI was developed to be the first selective fluorescent probe for CYP2J2[24]. Thus, with the help of the fast and sensitive advantages of fluorescence technology, the potential inhibitory effect of 108 herbal medicines (Table S1) towards CYP2J2 was screened. In brief, in the standard incubation system (100 mM phosphoric acid buffer, pH 7.4, NADPH generate system, BnXPI and extract of herbal medicines), BnXPI was set at 4 μM, and the concentration of CYP2J2 was 0.01 nmol/mL, after the pre-incubation of BnXPI and herbal medicines (final concentration was 20 μg/mL) for 3 min, NADP^+ was added to initiate the reaction. After additional 30 min (mins) incubation, 100 μL ice acetonitrile was added to terminate the reaction and followed a 20000 g centrifugation at 4 °C, the supernatant was collected and assay on a Synergy H1 Microplate Reader (Bio-Tek). The blank solvent replaces the extract of herbal medicines was set as the control group. According to the screening method mentioned above, various concentration of Piperine derivatives were added into our standard incubation system and incubated with CYP2J2, probe BnXPI for 30 min. The concentration of CYP2J2 was set at 3.75 pmol/mL, the concentration of BnXPI was 4 μM. The control group was added blank solvent instead of the inhibitors.

[2] = molecular target: T1, Human recombinant CYP2J2; assay: Inhibition kinetic study towards CYP2J2 (Lineweaver-Burk and Dixon plots); format: biochemical; details: for Ki: BnXPI 0–8 μM; for inhibition type towards CYP2J2: intersection point in Lineweaver–Burk plot
Protocol: In order to clarify the inhibition type of compound 9a, 9k, and 9l towards CYP2J2, the inhibition kinetics were also performed. Briefly, the inhibition activity of target compounds towards the metabolism kinetic of BnPXI (0–8 μM) mediated by CYP2J2 was determinated under the different concentrations of inhibitors. At last, Lineweaver–Burk and Dixon plots were used to fit the data as previously described[25]^,[26]. The inhibition kinetic type was evaluated by determining the intersection point in the Lineweaver–Burk plots. […] (1) v=Vmax/1+Km/[S](1+[I]/Ki) (2) v=Vmax/(1+Km/[S])(1+[I]/Ki) (3) v=Vmax/(1+Km/[S]+[I]/Ki) (4) v=Vmax/Km/[S](1+[I]/Ki)+(1+[I]/αKi)

IC50 [1] [nM] | increase of inhibition activity compared with Piperine [1] | Ki [2] [nM] | inhibition type towards CYP2J2 [2] | SMILES
4660 ± 560 | – | – | – | C[C@@H]1COCCN1C(=O)/C=C/C=C/c1ccc2c(c1)OCO2 [9f, (2E,4E)-5-(benzo[d][1,3]dioxol-5-yl)-1-((R)-3-methylmorpholino)penta-2,4-dien-1-one]
40 ± 8 | about 10 folds | 110 | competitive inhibition model | CC(C)CN(CC(C)C)C(=O)/C=C/C=C/c1ccc2c(c1)OCO2 [9k, (2E,4E)-5-(benzo[d][1,3]dioxol-5-yl)-N,N-diisobutylpenta-2,4-dienamide]
2250 ± 560 | – | – | – | C[C@H]1COCCN1C(=O)/C=C/C=C/c1ccc2c(c1)OCO2 [9g, (2E,4E)-5-(benzo[d][1,3]dioxol-5-yl)-1-((S)-3-methylmorpholino)penta-2,4-dien-1-one]
1580 ± 220 | – | – | – | O=C(/C=C/C=C/c1ccc2c(c1)OCO2)N1CCCC1 [9c, (2E,4E)-5-(benzo[d][1,3]dioxol-5-yl)-1-(pyrrolidin-1-yl)penta-2,4-dien-1-one]
4720 ± 730 | – | – | – | O=C(/C=C/C=C/c1ccc2c(c1)OCO2)NC1CC1 [9b, (2E,4E)-5-(benzo[d][1,3]dioxol-5-yl)-N-cyclopropylpenta-2,4-dienamide]
11800 ± 1470 | – | – | – | CN(C)CCNC(=O)/C=C/C=C/c1ccc2c(c1)OCO2 [9j, (2E,4E)-5-(benzo[d][1,3]dioxol-5-yl)-N-(2-(dimethylamino)ethyl)penta-2,4-dienamide]
750 ± 80 | – | – | – | O=C(/C=C/C=C/c1ccc2c(c1)OCO2)N1CCSCC1 [9h, (2E,4E)-5-(benzo[d][1,3]dioxol-5-yl)-1-thiomorpholinopenta-2,4-dien-1-one]
440 ± 50 | – | 500 | – | O=C(/C=C/C=C/c1ccc2c(c1)OCO2)N1CCCCC1 [9a, (2E,4E)-5-(benzo[d][1,3]dioxol-5-yl)-1-(piperidin-1-yl)penta-2,4-dien-1-one]
9330 ± 1060 | – | – | – | O=C(/C=C/C=C/c1ccc2c(c1)OCO2)NC12CC3CC(CC(C3)C1)C2 [9d, (2E,4E)-N-((3s,5s,7s)-adamantan-1-yl)-5-(benzo[d][1,3]dioxol-5-yl)penta-2,4-dienamide]
50 ± 5 | about 10 folds | 74 | competitive inhibition model | O=C(/C=C/C=C/c1ccc2c(c1)OCO2)NCc1ccc(F)cc1 [9l, (2E,4E)-5-(benzo[d][1,3]dioxol-5-yl)-N-(4-fluorobenzyl)penta-2,4-dienamide]
1240 ± 450 | – | – | – | O=C(/C=C/C=C/c1ccc2c(c1)OCO2)N1CCS(=O)(=O)CC1 [9i, (2E,4E)-5-(benzo[d][1,3]dioxol-5-yl)-1–(1,1-dioxidothiomorpholino)penta-2,4-dien-1-one]
12000 ± 1350 | – | – | – | O=C(/C=C/C=C/c1ccc2c(c1)OCO2)N1CCOCC1 [9e, (2E,4E)-5-(benzo[d][1,3]dioxol-5-yl)-1-morpholinopenta-2,4-dien-1-one]

Reference: publication PMC7946002, “The development of novel cytochrome P450 2J2 (CYP2J2) inhibitor and the underlying interaction between inhibitor and CYP2J2” (Journal of Enzyme Inhibition and Medicinal Chemistry, 2021)
